# Like-named read-outs stand apart in the source and are kept apart here. Numbered stars: 1 amine (or outer) side, 2 acyl side, 3 side chain; on linkers, the order of the positions; unused ones are H or OH. Peptide text beside a SMILES is read from it. CO = O=C([*:1])[*:2]
# Legend:
# [1] = target: T1, streptavidin (Streptomyces avidinii, UniProt P22629); experiment: Gel shift of 2b-desthiobiotin/streptavidin complex (FIG. 25c); type: binding; conditions: duplex 10 nM, read-out: apparent Kd for streptavidin
# T1 construct: 5'-carboxylate ssDNA oligonucleotide 1a (Cy3-labelled), chemically coupled via NHS ester; purchased New England Biolabs
# T1 sequence (P22629 25-183): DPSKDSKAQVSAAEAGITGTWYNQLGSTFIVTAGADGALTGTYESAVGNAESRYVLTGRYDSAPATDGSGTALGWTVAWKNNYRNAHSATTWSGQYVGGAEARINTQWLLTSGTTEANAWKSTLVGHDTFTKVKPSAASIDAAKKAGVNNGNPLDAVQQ
# Experimental: The DNA-ligand conjugate 2b-desthiobiotin was hybridized to a complementary 20-mer carrying a Cy3 label at the 3′-end. The resulting duplex (10 nM) was incubated with increasing concentrations of streptavidin in binding buffer (145 mM NaCl, 10 mM Tris/HCl, 10 mM MgCl2, 7 mM Na2PO4, 1.9 mM KCl, 1 mM dithiothreitol, pH 7.4), for 1 h and analyzed on a 20% TBE polyacrylamide gel. The appearance of a higher molecular weight band indicated formation of a streptavidin-2b-desthiobiotin complex. The apparent Kd was determined from the streptavidin concentration for which the bands corresponding to free DNA and to the complex were of approximately equal intensity.
# [2] = target: T2, streptavidin (1a-SA) (Streptomyces avidinii, UniProt P22629); experiment: ID-PCR on single target-ligand pair, qPCR threshold cycle (FIG. 20b); type: binding; conditions: with 1a-SA, Klenow extension and qPCR
# T2 construct: 5'-carboxylate ssDNA oligonucleotide 1a (Cy3-labelled), chemically coupled via NHS ester; purchased New England Biolabs
# T2 sequence (P22629 25-183): as above
# Experimental: We investigated whether binding between a small molecule and a protein could replace a covalent linkage in a DNA hairpin and support extension and PCR. […] The target and ligand strands shared a 6-nt complementary region.
# An extension mixture consisting of 10×NEB Buffer 2 (2 μL), dNTPs (660 pmol each in 2 μL water), and the target strand (200 fmol in 9 μL PBS) was incubated at 37° C. for 5 minutes. The appropriate ligand strand (200 fmol in 2 μL water) was added and the reaction mixture was incubated at 37° C. for 15 minutes. Klenow fragment exo^− (2.5 U in 5 μL of 1×NEB Buffer 2, New England Biolabs) was added. The primer extension reaction (final volume=20 μL) was incubated at 37° C. for 15 minutes. The polymerase was inactivated by heating to 75° C. for 20 minutes.
# For each 25 μL qPCR reaction, 12.5 μL of 2×SYBR Green iQ Supermix (Bio-Rad) was combined with 1 μL of 10 μM Primer A, 1 μL of 10 μM Primer B, and 9.5 μL Milli Q H2O. […] Quantitative PCR was performed using a CFX-96 Real-Time System with a C1000 Thermal Cycler (Bio-Rad). […]
# All primer extension and qPCR reactions were performed as described above, except that free ligand (200 pmol in 2 μL 10% DMSO) or DMSO (2 μL of 10% DMSO) was added when appropriate. […] Unless otherwise noted, PCR products were analyzed by PAGE on 10% TBE gels at 200 V for 25 minutes staining with ethidium bromide and imaging on a Chemilmager (AlphaInnotech). […]
# [3] = target: T3, carbonic anhydrase (Bos taurus, UniProt P00921); experiment: Carbonic anhydrase enzymatic activity inhibition, 4-nitrophenyl acetate substrate (FIG. 25a,b); type: biochemical, bovine; conditions: 37° C.; read-out: Ki for CA
# T3 sequence (P00921 whole entry): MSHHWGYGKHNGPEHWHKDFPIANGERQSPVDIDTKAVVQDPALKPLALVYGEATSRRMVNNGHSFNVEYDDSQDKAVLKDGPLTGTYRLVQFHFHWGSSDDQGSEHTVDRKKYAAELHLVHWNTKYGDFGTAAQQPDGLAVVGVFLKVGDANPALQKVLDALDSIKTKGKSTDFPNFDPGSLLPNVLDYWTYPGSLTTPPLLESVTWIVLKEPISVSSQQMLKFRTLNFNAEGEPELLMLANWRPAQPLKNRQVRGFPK
# [4] = target: T4, trypsin (Bos taurus, UniProt P00760); experiment: Trypsin inhibition, fluorogenic substrate Z-Arg-AMC (FIG. 25d); type: biochemical, bovine
# T4 sequence (P00760 24-246): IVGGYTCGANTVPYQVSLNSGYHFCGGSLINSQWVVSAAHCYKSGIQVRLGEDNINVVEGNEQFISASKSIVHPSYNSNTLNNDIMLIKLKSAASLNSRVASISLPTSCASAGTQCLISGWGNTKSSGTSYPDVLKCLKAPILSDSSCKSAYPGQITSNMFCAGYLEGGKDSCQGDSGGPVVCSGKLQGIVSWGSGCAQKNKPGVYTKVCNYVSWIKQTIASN
# Experimental: Conditions were adopted from a previously reported protocol.^17 Trypsin (200 fmol) was diluted in 90 μL PBS and was incubated with various concentrations of antipain, a known inhibitor of tryptic proteolysis, or 2e-antipain. The solution was equilibrated at room temperature for 10 minutes and at 35° C. for 5 minutes before addition of the fluorogenic proteolytic substrate Z-Arg-AMC (Bachem) (10 nmol in 10 μL 50% DMSO) (final volume=100 μL).
# Equation Used to Fit Ki from Inhibitory Curves (FIGS. 25a, b, d).
# The Ki was determined by fitting the following equation to the plot of normalized activity vs. inhibitor concentration: Vo=c+d(([E]tot+[i]tot+Ki)−sqrt((−[E]tot−[I]tot−Ki)^2−4*[E]tot*[I]tot))/(2*[E]tot), where Vo is initial reaction velocity, [E]tot is total enzyme concentration, [I]rot is total inhibitor concentration; c and d are variable parameters for the maximum Vo and for the difference between the minimum and maximum Vo, respectively.
# [5] = target: T4, trypsin; conditions: trypsin and antipain; cited from earlier work
# [6] = target: T1, streptavidin; experiment: ID-PCR model selection, ligand library x target library in one solution (FIG. 22); type: binding; conditions: DNA-linked ligand; relative to control lacking proteins; 261 ligand x 259 target sequences
# Experimental: (§1) Finally, we tested the ability of ID-PCR to simultaneously evaluate all possible combinations of multiple ligands and multiple targets in a single solution. […] The negative control ligand and target were conjugated to libraries of 256 different sequence tags. The resulting solution therefore contained equimolar quantities of each of 261 ligand sequences and each of 259 target sequences, collectively representing 67,599 possible ligand-target sequence combinations. A control sample was prepared identically except using DNA not conjugated to any protein targets. Both samples were subjected to ID-PCR followed by high-throughput DNA sequencing.
# (§2) A control primer extension reaction was also performed using the same pool of ligand strands, but with a pool of target strands lacking conjugated proteins (1, 1i, 1j, 60 pM each and 1k, 9.8 nM). Adapter sequences required for Illumina sequencing, as well as barcodes identifying the input and selection experiments, were installed by PCR with either Primer C (input control) or Primer D (selection) and Primer E. The appropriate cycle number for each reaction was determined by qPCR evaluation, such that preparative PCR reactions (50 μL total volume) were stopped in the exponential amplification phase in order to minimize dynamic compression during PCR. […]
# [7] = target: 68-nt DNA aptamer that binds daunomycin; conditions: DNA aptamer and daunomycin; cited from earlier work
# [8] = target: streptavidin (SA) (Streptomyces avidinii, UniProt P22629); conditions: free ligand and streptavidin; cited from earlier work
# Chain of streptavidin (SA) (P22629 25-183): as the sequence (P22629 25-183) above
# [9] = target: T3, carbonic anhydrase; experiment: ID-PCR model selection, ligand library x target library in one solution (FIG. 22); type: binding, bovine; conditions: DNA-linked ligand; relative to control lacking proteins; 261 ligand x 259 target sequences
# Experimental: as §1, §2
# [10] = target: carbonic anhydrase II (CA) (Bos taurus, UniProt P00921); conditions: cited from earlier work
# Chain of carbonic anhydrase II (CA) (P00921 whole entry): as the sequence (P00921 whole entry) above
compound,measurement,setting,value
"2b-desthiobiotin: ligand strand 2 conjugated to desthiobiotin (SEQ 57) (TGGATCGTGATGACTGTCCCGACAAGCATACGTATCTCACT; desthiobiotin conjugated, position not given here)",Kd,[1],8 nM
same,amplification efficiency in ID-PCR,[2],comparable to that of 2a-biotin
"2s-GLCBS: GLCBS-DNA conjugate (SEQ 78) (DNA TGGATCGTGATGACTGTCCCGACAAGGATCCGTATCTCACT; DNA, backbone and methylation of C not given here; GLCBS conjugated at 3' end, further chemistry not fully specified)",Ki,[3],380 nM
CC(C)[C@H](NC(=O)[C@H](CCCNC(=N)N)NC(=O)N[C@@H](Cc1ccccc1)C(=O)O)C(=O)N[C@H](C=O)CCCNC(=N)N [antipain] ({Phe-CO}-Arg-Val-Arg-aldehyde),Ki,[4],39.5 nM
same,Ki,[5],100 nM
O=C(O)CCCC[C@@H]1SC[C@@H]2NC(=O)N[C@@H]21 [biotin],Enrichment Factor,[6],860
COc1cccc2c1C(=O)c1c(O)c3c(c(O)c1C2=O)C[C@@](O)(C(C)=O)C[C@@H]3O[C@H]1C[C@H](N)[C@H](O)[C@H](C)O1 [daunomycin],Kd,[7],272 nM
C[C@@H]1NC(=O)N[C@@H]1CCCCCC(=O)O [desthiobiotin],Enrichment Factor,[6],3078
same,Kd,[8],2 nM
Gly-Leu-CBS [GLCBS],Ki,[3],470 nM
same,Enrichment Factor,[9],225
same,Ki,[10]; FIG. 20 legend,9 nM
same,Kd,[10]; text b276,9 nM

# Source: patent US10011868B2, “Reactivity-dependent and interaction-dependent PCR” (priority 2009, dated 2018)
